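GI50 = concentration required for 50% inhibition of growth. TGI is the concentration that stops growth completely.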
Columns and labels:
Assay in all cases: NCI-60 cell line screen, 384-well format; in the data active means GI50 below about 0.43 µM; inactive means the rest
[1] = tested on: U251 glioblastoma
[2] = tested on: MOLT-4 leukemia
[3] = tested on: OVCAR-4 ovarian
[4] = tested on: M14 melanoma
[5] = tested on: OVCAR-5 ovarian
[6] = tested on: KM12 colon
[7] = tested on: UO-31 renal
[8] = tested on: SNB-75 CNS
[9] = tested on: PC-3 prostate
[10] = tested on: HCT-15 colon
[11] = tested on: TK-10 renal
[12] = tested on: ACHN renal
[13] = tested on: CAKI-1 renal
[14] = tested on: RPMI-8226 leukemia
[15] = tested on: DU-145 prostate
[16] = tested on: IGROV1 ovarian
[17] = tested on: SF-268 CNS
[18] = tested on: HT29 colon
[19] = tested on: 786-0 renal
[20] = tested on: LOX IMVI melanoma
[21] = tested on: CCRF-CEM leukemia
[22] = tested on: HCC-2998 colon
[23] = tested on: MCF7 breast
[24] = tested on: NCI-H460 NSCLC
[25] = tested on: MDA-MB-468 breast
[26] = tested on: HOP-92 NSCLC
[27] = tested on: SW-620 colon
[28] = tested on: A498 renal
[29] = tested on: HCT-116 colon
[30] = tested on: NCI-H226 lung
[31] = tested on: OVCAR-3 ovarian
[32] = tested on: BT-549 breast
[33] = tested on: COLO 205 colon
[34] = tested on: HOP-62 NSCLC
[35] = tested on: SF-295 CNS
[36] = tested on: HL-60(TB) leukemia
[37] = tested on: NCI/ADR-RES ovarian
[38] = tested on: A549 NSCLC
[39] = tested on: UACC-62 melanoma
[40] = tested on: OVCAR-8 ovarian
[41] = tested on: EKVX NSCLC

CCNCCS(=O)(=O)NC[C@@]1(c2ccccc2)SC(NC(=O)C(C)(C)C)=NN1C(=O)C(C)(C)C
active: GI50 [1] < 0.01 µM | GI50 [2] < 0.01 µM | GI50 [4] < 0.01 µM | GI50 [5] < 0.01 µM | GI50 [6] < 0.01 µM | GI50 [8] < 0.01 µM | GI50 [9] < 0.01 µM | GI50 [10] 0.108 µM | GI50 [13] 0.0427 µM | GI50 [14] < 0.01 µM | GI50 [15] < 0.01 µM | GI50 [16] < 0.01 µM | GI50 [17] < 0.01 µM | GI50 [18] < 0.01 µM | GI50 [19] < 0.01 µM | GI50 [20] < 0.01 µM | GI50 [21] < 0.01 µM | GI50 [22] < 0.01 µM | GI50 [23] < 0.01 µM | GI50 [24] < 0.01 µM | GI50 [25] < 0.01 µM | GI50 [26] < 0.01 µM | GI50 [27] < 0.01 µM | GI50 [28] < 0.01 µM | GI50 [29] < 0.01 µM | GI50 [31] < 0.01 µM | GI50 [32] < 0.01 µM | GI50 [33] < 0.01 µM | GI50 [34] < 0.01 µM | GI50 [35] 0.0177 µM | GI50 [36] < 0.01 µM | GI50 [38] < 0.01 µM | GI50 [39] < 0.01 µM | GI50 [40] < 0.01 µM | GI50 [41] < 0.01 µM
< 0.01 µM: TGI [2] | TGI [4] | TGI [14] | TGI [17] | TGI [18] | TGI [21] | TGI [24] | TGI [25] | TGI [31] | TGI [33] | TGI [36]
75.6 µM: TGI [34]
62 µM: TGI [26]
22.4 µM: TGI [20]
> 100 µM: TGI [1] | TGI [3] | TGI [5] | TGI [6] | TGI [7] | TGI [9] | TGI [10] | TGI [11] | TGI [12] | TGI [13] | TGI [15] | TGI [16] | TGI [28] | TGI [29] | TGI [30] | TGI [35] | TGI [37] | TGI [38] | TGI [39] | TGI [40] | TGI [41]
58.9 µM: TGI [32]
48.7 µM: TGI [8]
42.7 µM: TGI [23]
inactive: GI50 [3] 29.5 µM | GI50 [7] 63.3 µM | GI50 [11] 26.4 µM | GI50 [12] 52.6 µM | GI50 [30] 74.6 µM | GI50 [37] 3.42 µM
24.6 µM: TGI [22]
62.6 µM: TGI [27]
28.6 µM: TGI [19]

From PubChem BioAssay (NCI)
